In brackets after ≈: the same amount, converted by molar mass.
Experiments:
[1] = tested on: HL-60; test: Cytotoxicity against human HL60 cells; type: functional, cell-based
[2] = tested on: Bel-7402; test: Cytotoxicity against human Bel7402 cells; type: functional, cell-based

With `C=C1C(=O)O[C@H]2[C@H]1[C@H](OC(=O)/C(C)=C/CO)C[C@](O)(CCl)[C@@H]1[C@H](OC(C)=O)[C@H]3O[C@@]3(C)[C@H]21` [EUPACHNILIDE F] the IC50 [1] was 0.87 mg/L (≈ 1.85 µM) and the IC50 [2] was 3.7 mg/L (≈ 7.86 µM).
For `C=C1C(=O)O[C@@H]2/C=C(\C)C[C@H](O)/C=C(\C)C[C@@H](OC(=O)/C(C)=C/COC(C)=O)[C@@H]12` [EUPACHINILIDE I], the IC50 [1] was 0.94 mg/L (≈ 2.32 µM) and the IC50 [2] was 3.6 mg/L (≈ 8.9 µM).
In the case of `C=C1C(=O)O[C@H]2[C@H]1[C@H](OC(=O)/C(C)=C\C)CC(CO)=C1C[C@H](O)[C@](C)(O)[C@@H]12` [EUPACHINILIDE A], the IC50 [1] is reported as 10.8 mg/L (≈ 28.5 µM) and the IC50 [2] is reported as 72.2 mg/L (≈ 191 µM).
Molecule `CC[C@@]1(O)C(=O)OCc2c1cc1n(c2=O)Cc2cc3cc(O)ccc3nc2-1` [HYDROXYCAMPTOTHECIN] has an IC50 [1] of 0.024 mg/L (≈ 0.0659 µM) and an IC50 [2] of 0.62 mg/L (≈ 1.7 µM).
For `C=C1C(=O)O[C@H]2[C@H]1[C@H](OC(=O)/C(C)=C/CO)C[C@](O)(CCl)[C@@H]1[C@H](O)[C@H]3O[C@@]3(C)[C@H]21` [EUPACHINILIDE E], the IC50 [1] was 1.3 mg/L (≈ 3.03 µM) and the IC50 [2] was 18 mg/L (≈ 42 µM).
